Measured values as given in PMC11843658 (Journal of Enzyme Inhibition and Medicinal Chemistry, 2025).

Columns and labels:
C42B cells = test: CCK8 assay, C42B prostate cancer cells; assay type: cell-based; conditions: Homo sapiens, 10 μM, 48 h, read-out: cell viability rate
Method: (§1) C42B, PC3, Caco-2, HepG2, MCF7, HL-60, 8505 C, OVCAR-3, and A549 were cultured to screen the broad-spectrum antiproliferative activity of compound 14. For above cell lines, three thousand cells per well were seeded in the 96-well plate and treated by compound 14 for 48 or 72 h at different concentrations (0, 5, 10, and 20 μM). In addition, HepG2, HEP3B, HUH6, and HUH7 were cultured to screen its antiproliferative activity against liver cancer cell lines. For these liver cancer cell lines, two thousand cells per well were seeded in the 96-well plate and treated by compound 14 for 48 h at different concentrations (0, 0.625, 1.25, 2.5, and 5 μM). Then, 10 μl of CCK8 was added into each well and cells were incubated in a humidified atmosphere of 5% CO2 at 37 °C for 4 h. The 96-well plate was measured with a microplate reader (Bio-Tek, San Diego, CA) at a wavelength of 450 nm to calculate IC50 values.

PC3 cells = test: CCK8 assay, PC3 prostate cancer cells; assay type: cell-based; conditions: Homo sapiens, PC-3, 10 μM, 48 h, read-out: cell viability rate
Method: as §1

Caco-2 cells = test: CCK8 assay, Caco-2 colon cancer cells; assay type: cell-based; conditions: Homo sapiens, 10 μM, 48 h, read-out: cell viability rate
Method: as §1

MCF7 cells = test: CCK8 assay, MCF7 breast cancer cells; assay type: cell-based; conditions: Homo sapiens, 10 μM, 48 h, read-out: cell viability rate
Method: as §1

8505 C cells = test: CCK8 assay, 8505 C thyroid cancer cells; assay type: cell-based; conditions: Homo sapiens, 10 μM, 48 h, read-out: cell viability rate
Method: as §1

OVCAR-3 cells = test: CCK8 assay, OVCAR-3 ovarian cancer cells; assay type: cell-based; conditions: Homo sapiens, 10 μM, 48 h, read-out: cell viability rate
Method: as §1

LSD1 [1] = target: T1, LSD1 (Homo sapiens, UniProt O60341); test: Dialysis assay to evaluate the reversibility; assay type: biochemical; conditions: dialysis against HEPES buffer, GSK-LSD1 as irreversible reference
Method: A mixture of compound 14 and the recombinant LSD1 was incubated for 60 min at 37 °C. Then, the system was dialysed against 50 mmol/l HEPES buffer at 37 °C for 12 h. Finally, the HEPES buffer was replaced and the system was incubated for 12 h at 37 °C. In the dialysis experiment, an irreversible inhibitor GSK-LSD1 was purchased as the reference drug (Innochem, Beijing, China).

H3K4me1/2 = test: Western blotting of LSD1 substrates H3K4me1/2; assay type: cell-based; conditions: Western blotting, 0, 0.5, 1, and 2 μM, 48 h
Method: (§2) Compound 14 at different concentrations (0, 0.5, 1, and 2 μM) was added into cancer cells solution and incubated for 48 h. Total protein was isolated from cells using RIPA buffer (Servicebio, Wuhan, China). An amount of […] of total protein were separated by sodium dodecyl sulphate polycrylamide gel electrophoresis and transferred to PVDF membranes. 5% non-fat milk (Servicebio, Wuhan, China) was used to block PVDF membranes and incubated with primary antibody for 12 h at 4 °C. Then, PVDF membranes were washed by TBST buffer (Servicebio, Wuhan, China) and incubated with secondary antibody at room temperature for 2 h. The enhanced chemiluminescence kit (Servicebio, Wuhan, China) was used to visualise immunoreactive bands. H3, GAPDH, Vimentin, N-cadherin, and E-cadherin as antibodies were purchased from Servicebio (Wuhan, China). Catalogue numbers of H3, GAPDH, Vimentin, N-cadherin, and E-cadherin as antibodies in Servicebio are GB11102, GB15004, GB11192, GB12135, and GB12868, respectively. H3K4me1 and H3K4me2 were obtained from Proteintech Group, Inc (Wuhan, China). Catalogue numbers of H3K4me1 and H3K4me2 as antibodies in Proteintech Group are 91289 and 39679, respectively.

[2] = tested on: E-cadherin, N-cadherin, and Vimentin in HepG2 cells; test: Western blotting of epithelial–mesenchymal transition-related proteins; assay type: cell-based, Human
Method: as §2

[3] = Toxicity in xenograft study: weight of mice, haematoxylin and eosin staining of organs; assay type: in vivo; conditions: 60 mg/kg by gavage every day for 21 days, vs control group
LSD1 [4] = target: T1, LSD1; test: LSD1 screening assay kit (enzymatic activity); assay type: biochemical; set-up: purchased Cayman Chemical (Ann Arbor, MI); conditions: fluorescence, read-out: IC50 against LSD1
Method: After the incubation for 30 min at 37 °C, a mixture of horseradish peroxidase solution (20 μl) and fluorometric substrate solution (10 μl) was added to each well. Then, the 96-well plate was incubated for 15 min at 37 °C. Finally, the fluorescence of each well in the 96-well plate was measured at an emission wavelength of 590 nm and an excitation wavelength of 530 nm by a fluorimeter (Agilent Technologies Inc., Palo Alto, CA). Seclidemstat, a famous LSD1 inhibitor, was used as the control drug in this assay.

In the case of `COc1ccc(CN(C(=O)CCN2C(=O)CCCC2=O)c2cc(OC)c(OC)c(OC)c2)cc1` [Compound 14, 3-(2,6-dioxopiperidin-1-yl)-N-(4-methoxybenzyl)-N-(3,4,5-trimethoxyphenyl)propanamide], the viability at 10 µM (C42B cells) is reported as 88%, the viability at 10 µM (PC3 cells) is reported as 52% and the viability at 10 µM (Caco-2 cells) is reported as 72.3%. For the same compound, the viability at 10 µM (MCF7 cells) was 49.7%, the viability at 10 µM (8505 C cells) was 49.7% and the viability at 10 µM (OVCAR-3 cells) was 80.7%. The “reversibility of LSD1 inhibition” value (LSD1 [1]) was “inhibits LSD1 in a reversible manner”, the “methylation levels of H3K4me1 and H3K4me2” value (H3K4me1/2) was “increase the methylation levels of H3K4me1 and H3K4me2” and the “expression level of E-cadherin” value [2] was “increases the expression level of E-cadherin”. The “expression levels of N-cadherin and Vimentin” value [2] was “decreases the expression levels of N-cadherin and Vimentin”, the “body weight of nude mice” value [3] was “did not show significant changes in body weight” and the “haematoxylin and eosin staining of liver, spleen, lung, and kidney” value [3] was “no morphological differences”. The IC50 (LSD1 [4]) was 180 nM.
